Data published in ChEMBL document CHEMBL5579809, “Exploration of bromodomain ligand-linker conjugation sites for efficient CBP/p300 heterobifunctional degrader activity” (Bioorg Med Chem Lett, 2024).
Activity calls are given as the source filed them. The calls are words filed in the database; no cut-off is given here.

Assays:
[1] = target: T1, Protein cereblon/CREB-binding protein (Homo sapiens) (UniProt Q92793+Q96SW2); experiment: PROTAC activity at CRBN/HiBiT-tagged CBP in human HAP1 cells assessed as total cumulative degradation by measuring AUC at 100 nM measured over 24 hrs by luminescence based analysis; format: cell-based
T1 sequence (Q92793 2-2442 limits assumed): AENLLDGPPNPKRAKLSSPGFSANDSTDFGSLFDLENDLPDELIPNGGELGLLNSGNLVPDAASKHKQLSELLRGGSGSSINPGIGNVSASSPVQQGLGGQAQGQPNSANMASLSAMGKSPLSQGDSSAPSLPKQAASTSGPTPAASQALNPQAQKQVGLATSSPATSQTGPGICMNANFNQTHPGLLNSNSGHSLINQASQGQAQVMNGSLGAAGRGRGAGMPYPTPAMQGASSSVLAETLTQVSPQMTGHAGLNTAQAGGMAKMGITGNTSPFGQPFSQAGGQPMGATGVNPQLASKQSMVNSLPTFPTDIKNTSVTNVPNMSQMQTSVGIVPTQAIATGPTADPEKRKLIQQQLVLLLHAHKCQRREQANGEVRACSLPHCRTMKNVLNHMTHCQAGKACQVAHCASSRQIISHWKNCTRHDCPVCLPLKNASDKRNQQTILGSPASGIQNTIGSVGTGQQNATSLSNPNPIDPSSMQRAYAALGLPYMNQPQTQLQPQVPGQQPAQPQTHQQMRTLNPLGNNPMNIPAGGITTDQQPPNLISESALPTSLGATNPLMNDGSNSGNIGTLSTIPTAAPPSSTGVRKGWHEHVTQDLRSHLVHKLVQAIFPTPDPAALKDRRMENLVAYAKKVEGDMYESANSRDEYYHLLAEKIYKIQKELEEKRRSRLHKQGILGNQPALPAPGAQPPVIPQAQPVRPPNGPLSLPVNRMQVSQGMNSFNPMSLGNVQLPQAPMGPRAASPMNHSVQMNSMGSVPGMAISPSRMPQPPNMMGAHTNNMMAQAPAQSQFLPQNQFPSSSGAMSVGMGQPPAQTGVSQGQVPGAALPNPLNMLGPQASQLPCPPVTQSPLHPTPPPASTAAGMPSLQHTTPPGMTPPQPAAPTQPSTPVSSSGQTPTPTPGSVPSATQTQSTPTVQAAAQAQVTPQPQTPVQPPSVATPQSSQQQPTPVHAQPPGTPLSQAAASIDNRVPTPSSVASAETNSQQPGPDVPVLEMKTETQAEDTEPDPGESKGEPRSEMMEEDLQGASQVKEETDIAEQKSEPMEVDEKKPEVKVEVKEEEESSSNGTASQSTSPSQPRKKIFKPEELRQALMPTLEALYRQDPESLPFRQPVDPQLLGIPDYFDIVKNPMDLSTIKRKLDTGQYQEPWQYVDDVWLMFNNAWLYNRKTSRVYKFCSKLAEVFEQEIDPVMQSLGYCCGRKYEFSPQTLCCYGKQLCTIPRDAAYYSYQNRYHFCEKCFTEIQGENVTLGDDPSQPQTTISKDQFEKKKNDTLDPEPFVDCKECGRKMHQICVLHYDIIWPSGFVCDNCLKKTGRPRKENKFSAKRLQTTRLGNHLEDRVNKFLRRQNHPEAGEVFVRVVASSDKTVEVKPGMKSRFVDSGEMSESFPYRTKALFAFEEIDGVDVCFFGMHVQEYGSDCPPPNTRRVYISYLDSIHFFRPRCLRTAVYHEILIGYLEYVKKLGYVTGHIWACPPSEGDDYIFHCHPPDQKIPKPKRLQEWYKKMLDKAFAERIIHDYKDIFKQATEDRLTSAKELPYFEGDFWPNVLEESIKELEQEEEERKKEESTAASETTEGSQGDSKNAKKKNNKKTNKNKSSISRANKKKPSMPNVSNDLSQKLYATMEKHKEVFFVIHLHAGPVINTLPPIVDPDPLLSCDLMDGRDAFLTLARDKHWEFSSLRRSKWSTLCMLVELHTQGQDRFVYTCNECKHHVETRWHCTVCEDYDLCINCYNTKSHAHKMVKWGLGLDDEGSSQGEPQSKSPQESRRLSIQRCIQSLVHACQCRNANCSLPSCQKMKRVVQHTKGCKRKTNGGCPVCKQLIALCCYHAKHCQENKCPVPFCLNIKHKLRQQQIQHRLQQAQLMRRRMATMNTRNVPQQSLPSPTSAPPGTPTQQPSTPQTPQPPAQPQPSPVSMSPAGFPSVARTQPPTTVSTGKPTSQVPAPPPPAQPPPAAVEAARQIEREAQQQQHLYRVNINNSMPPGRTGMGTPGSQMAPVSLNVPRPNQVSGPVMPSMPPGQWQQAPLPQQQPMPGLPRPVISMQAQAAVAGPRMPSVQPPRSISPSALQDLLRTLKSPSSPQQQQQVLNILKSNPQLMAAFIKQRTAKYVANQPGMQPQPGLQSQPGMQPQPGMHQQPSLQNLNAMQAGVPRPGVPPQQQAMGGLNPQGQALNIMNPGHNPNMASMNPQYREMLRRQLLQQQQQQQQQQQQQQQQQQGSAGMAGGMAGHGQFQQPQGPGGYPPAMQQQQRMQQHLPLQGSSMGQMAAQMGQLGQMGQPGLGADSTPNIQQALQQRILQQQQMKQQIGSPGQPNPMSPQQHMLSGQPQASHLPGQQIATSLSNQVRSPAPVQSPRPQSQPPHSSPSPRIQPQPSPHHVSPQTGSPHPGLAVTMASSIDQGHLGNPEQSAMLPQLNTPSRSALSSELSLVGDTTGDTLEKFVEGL
T1 sequence (Q96SW2 whole entry partner): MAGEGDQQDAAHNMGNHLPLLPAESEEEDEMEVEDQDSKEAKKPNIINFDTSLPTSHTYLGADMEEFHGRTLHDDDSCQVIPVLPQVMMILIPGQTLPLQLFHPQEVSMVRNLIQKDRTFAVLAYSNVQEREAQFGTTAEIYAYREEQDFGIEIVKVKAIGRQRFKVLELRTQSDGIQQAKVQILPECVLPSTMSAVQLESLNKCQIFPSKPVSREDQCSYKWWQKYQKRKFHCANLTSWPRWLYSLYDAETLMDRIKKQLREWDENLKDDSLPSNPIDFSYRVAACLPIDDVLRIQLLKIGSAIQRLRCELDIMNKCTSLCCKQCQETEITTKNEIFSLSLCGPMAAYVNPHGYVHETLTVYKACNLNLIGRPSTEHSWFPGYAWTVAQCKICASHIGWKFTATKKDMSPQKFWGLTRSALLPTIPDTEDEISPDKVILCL

[2] = target: T2, Protein cereblon/Histone acetyltransferase p300 (Homo sapiens) (UniProt Q09472+Q96SW2); experiment: Binding affinity to recombinant CRBN/p300 bromodomain (unknown origin) assessed as ternary complex formation at 10 to 100 nM by Alphascreen-based proximity assay; format: protein assay; settings: dose 10-100 nM
[3] = target: Protein cereblon/Bromodomain-containing protein 4 (Homo sapiens) (UniProt O60885+Q96SW2); experiment: PROTAC activity at CRBN/HiBiT-tagged BRD4 in human HAP1 cells assessed as induction of BRD4 degradation measured over 24 hrs by luminescence based analysis; format: cell-based
Chain of Protein cereblon/Bromodomain-containing protein 4 (Homo sapiens) (Q96SW2 whole entry, looked up, other chains not shown): as the sequence (Q96SW2 whole entry partner) above

[4] = target: T2, Protein cereblon/Histone acetyltransferase p300 (Homo sapiens); experiment: PROTAC activity at CRBN/HiBiT-tagged p300 in human HAP1 cells assessed as total cumulative degradation by measuring AUC at 0.01 nM measured over 24 hrs by luminescence based analysis; format: cell-based
[5] = target: T2, Protein cereblon/Histone acetyltransferase p300 (Homo sapiens); experiment: PROTAC activity at CRBN/HiBiT-tagged p300 in human HAP1 cells assessed as total cumulative degradation by measuring AUC at 0.1 nM measured over 24 hrs by luminescence based analysis; format: cell-based
[6] = target: T2, Protein cereblon/Histone acetyltransferase p300 (Homo sapiens); experiment: PROTAC activity at CRBN/HiBiT-tagged p300 in human HAP1 cells assessed as total cumulative degradation by measuring AUC at 10 nM measured over 24 hrs by luminescence based analysis; format: cell-based
[7] = target: T1, Protein cereblon/CREB-binding protein (Homo sapiens); experiment: PROTAC activity at CRBN/HiBiT-tagged CBP in human HAP1 cells assessed as total cumulative degradation by measuring AUC at 0.1 nM measured over 24 hrs by luminescence based analysis; format: cell-based
[8] = target: T1, Protein cereblon/CREB-binding protein (Homo sapiens); experiment: PROTAC activity at CRBN/HiBiT-tagged CBP in human HAP1 cells assessed as total cumulative degradation by measuring AUC at 0.01 nM measured over 24 hrs by luminescence based analysis; format: cell-based
[9] = target: T1, Protein cereblon/CREB-binding protein (Homo sapiens); experiment: PROTAC activity at CRBN/HiBiT-tagged CBP in human HAP1 cells assessed as total cumulative degradation by measuring AUC at 1 nM measured over 24 hrs by luminescence based analysis; format: cell-based
[10] = target: T1, Protein cereblon/CREB-binding protein (Homo sapiens); experiment: Binding affinity to recombinant CRBN/CBP bromodomain (unknown origin) assessed as ternary complex formation at 10 to 100 nM by Alphascreen-based proximity assay; format: protein assay; settings: dose 10-100 nM
[11] = target: T2, Protein cereblon/Histone acetyltransferase p300 (Homo sapiens); experiment: PROTAC activity at CRBN/HiBiT-tagged p300 in human HAP1 cells assessed as induction of p300 degradation by measuring maximal efficacy at 1000 nM measured over 24 hrs by luminescence based analysis relative to control; format: cell-based
[12] = target: T1, Protein cereblon/CREB-binding protein (Homo sapiens); experiment: PROTAC activity at CRBN/HiBiT-tagged CBP in human HAP1 cells assessed as total cumulative degradation by measuring AUC at 10 nM measured over 24 hrs by luminescence based analysis; format: cell-based
[13] = target: T2, Protein cereblon/Histone acetyltransferase p300 (Homo sapiens); experiment: PROTAC activity at CRBN/HiBiT-tagged p300 in human HAP1 cells assessed as induction of p300 degradation by measuring degradation rate at 1000 nM measured over 24 hrs by luminescence based analysis; format: cell-based
[14] = target: T2, Protein cereblon/Histone acetyltransferase p300 (Homo sapiens); experiment: PROTAC activity at CRBN/HiBiT-tagged p300 in human HAP1 cells assessed as total cumulative degradation by measuring AUC at 1000 nM measured over 24 hrs by luminescence based analysis; format: cell-based
[15] = target: T2, Protein cereblon/Histone acetyltransferase p300 (Homo sapiens); experiment: PROTAC activity at CRBN/HiBiT-tagged p300 in human HAP1 cells assessed as total cumulative degradation by measuring AUC at 100 nM measured over 24 hrs by luminescence based analysis; format: cell-based
[16] = target: T1, Protein cereblon/CREB-binding protein (Homo sapiens); experiment: PROTAC activity at CRBN/HiBiT-tagged CBP in human HAP1 cells assessed as total cumulative degradation by measuring AUC at 1000 nM measured over 24 hrs by luminescence based analysis; format: cell-based
[17] = target: T2, Protein cereblon/Histone acetyltransferase p300 (Homo sapiens); experiment: PROTAC activity at CRBN/HiBiT-tagged p300 in human HAP1 cells assessed as total cumulative degradation by measuring AUC at 1 nM measured over 24 hrs by luminescence based analysis; format: cell-based
[18] = target: T1, Protein cereblon/CREB-binding protein (Homo sapiens); experiment: PROTAC activity at CRBN/HiBiT-tagged CBP in human HAP1 cells assessed as induction of CBP degradation by measuring maximal efficacy at 1 nM measured over 24 hrs by luminescence based analysis relative to control; format: cell-based
[19] = target: T1, Protein cereblon/CREB-binding protein (Homo sapiens); experiment: PROTAC activity at CRBN/HiBiT-tagged CBP in human HAP1 cells assessed as induction of CBP degradation by measuring maximal efficacy at 10 nM measured over 24 hrs by luminescence based analysis relative to control; format: cell-based
[20] = target: T1, Protein cereblon/CREB-binding protein (Homo sapiens); experiment: PROTAC activity at CRBN/HiBiT-tagged CBP in human HAP1 cells assessed as induction of CBP degradation by measuring maximal efficacy at 1000 nM measured over 24 hrs by luminescence based analysis relative to control; format: cell-based
[21] = target: T1, Protein cereblon/CREB-binding protein (Homo sapiens); experiment: PROTAC activity at CRBN/HiBiT-tagged CBP in human HAP1 cells assessed as induction of CBP degradation by measuring degradation rate at 10 nM measured over 24 hrs by luminescence based analysis; format: cell-based
[22] = target: T2, Protein cereblon/Histone acetyltransferase p300 (Homo sapiens); experiment: PROTAC activity at CRBN/HiBiT-tagged p300 in human HAP1 cells assessed as induction of p300 degradation by measuring maximal efficacy at 1 nM measured over 24 hrs by luminescence based analysis relative to control; format: cell-based
[23] = target: T1, Protein cereblon/CREB-binding protein (Homo sapiens); experiment: PROTAC activity at CRBN/HiBiT-tagged CBP in human HAP1 cells assessed as induction of CBP degradation by measuring degradation rate at 1 nM measured over 24 hrs by luminescence based analysis; format: cell-based
[24] = target: T2, Protein cereblon/Histone acetyltransferase p300 (Homo sapiens); experiment: PROTAC activity at CRBN/HiBiT-tagged p300 in human HAP1 cells assessed as induction of p300 degradation by measuring degradation rate at 1 nM measured over 24 hrs by luminescence based analysis; format: cell-based
[25] = target: T2, Protein cereblon/Histone acetyltransferase p300 (Homo sapiens); experiment: PROTAC activity at CRBN/HiBiT-tagged p300 in human HAP1 cells assessed as induction of p300 degradation by measuring maximal efficacy at 10 nM measured over 24 hrs by luminescence based analysis relative to control; format: cell-based
[26] = target: T2, Protein cereblon/Histone acetyltransferase p300 (Homo sapiens); experiment: PROTAC activity at CRBN/HiBiT-tagged p300 in human HAP1 cells assessed as induction of p300 degradation by measuring maximal efficacy at 100 nM measured over 24 hrs by luminescence based analysis relative to control; format: cell-based
[27] = target: T1, Protein cereblon/CREB-binding protein (Homo sapiens); experiment: PROTAC activity at CRBN/HiBiT-tagged CBP in human HAP1 cells assessed as induction of CBP degradation by measuring maximal efficacy at 100 nM measured over 24 hrs by luminescence based analysis relative to control; format: cell-based
[28] = target: T1, Protein cereblon/CREB-binding protein (Homo sapiens); experiment: PROTAC activity at CRBN/HiBiT-tagged CBP in human HAP1 cells assessed as induction of CBP degradation by measuring degradation rate at 100 nM measured over 24 hrs by luminescence based analysis; format: cell-based
[29] = target: T2, Protein cereblon/Histone acetyltransferase p300 (Homo sapiens); experiment: PROTAC activity at CRBN/HiBiT-tagged p300 in human HAP1 cells assessed as induction of p300 degradation by measuring degradation rate at 10 nM measured over 24 hrs by luminescence based analysis; format: cell-based
[30] = target: T1, Protein cereblon/CREB-binding protein (Homo sapiens); experiment: PROTAC activity at CRBN/HiBiT-tagged CBP in human HAP1 cells assessed as induction of CBP degradation by measuring degradation rate at 1000 nM measured over 24 hrs by luminescence based analysis; format: cell-based
[31] = target: T2, Protein cereblon/Histone acetyltransferase p300 (Homo sapiens); experiment: PROTAC activity at CRBN/HiBiT-tagged p300 in human HAP1 cells assessed as induction of p300 degradation by measuring degradation rate at 100 nM measured over 24 hrs by luminescence based analysis; format: cell-based

| AUC [1] | Activity [2] | Activity [3] | AUC [4] | AUC [5] | AUC [6] | AUC [7] | AUC [8] | AUC [9] | Activity [10] | Emax [11] | AUC [12] | Activity [13] | AUC [14] | AUC [15] | AUC [16] | AUC [17] | Emax [25] | Emax [26] | Activity [29] | SMILES | further results |
| --- | --- | --- | --- | --- | --- | --- | --- | --- | --- | --- | --- | --- | --- | --- | --- | --- | --- | --- | --- | --- | --- |
| 24.1 | Active | inactive | 27.7 | 27.5 | 26.4 | 24.4 | 24.9 | 24.5 | Active | 33% | 24.2 | 0.05 h⁻¹ | 20.5 | 24.2 | 23 | 27.4 |  |  |  | CNC(=O)N1CCc2c(c(N3CCN(C(=O)NCCOCCOCCOCCOCCOCCOCCNc4ccc5c(c4)C(=O)N(C4CCC(=O)NC4=O)C5=O)c4cc(-c5cnn(C)c5)c(C(F)(F)F)cc43)nn2C2CCOCC2)C1 (configuration not stated) |  |
| 12.1 | Active | inactive | 25.7 | 27.3 | 13.7 | 25.5 | 24.2 | 22.6 | Active | 65% | 16 | 0.14 h⁻¹ | 13.5 | 10.4 | 15.1 | 22.6 | 55% | 69% | 0.22 h⁻¹ | CNC(=O)N1CCc2c(c(N3CCCc4cc(-c5cnn(CC(=O)NCCOCCNc6ccc7c(c6)C(=O)N(C6CCC(=O)NC6=O)C7=O)c5)c(C(F)F)cc43)nn2C2CCOCC2)C1 (configuration not stated) | Emax [18]: 20%; Emax [19]: 44%; Emax [20]: 59%; Activity [21]: 0.21 h⁻¹; Emax [22]: 18%; Activity [23]: 1.5 10^-4/hr; Activity [24]: 0.004 h⁻¹; Emax [27]: 63%; Activity [28]: 0.22 h⁻¹; Activity [30]: 0.12 h⁻¹; Activity [31]: 0.26 h⁻¹ |
| 23.2 | Active | inactive | 27.6 | 27 | 22.7 | 22.8 | 21.6 | 23.6 | Active |  | 23 |  | 26.1 | 22.4 | 25 | 26.1 | 19% | 21% | 0.006 h⁻¹ | CNC(=O)N1CCc2c(c(N3CCCc4cc(-c5cnn(CC(=O)NCCOCCOCCOCCOCCOCCOCCNc6ccc7c(c6)C(=O)N(C6CCC(=O)NC6=O)C7=O)c5)c(C(F)F)cc43)nn2C2CCOCC2)C1 (configuration not stated) | Activity [31]: 0.02 h⁻¹ |
